Read-outs that look alike come from different tables or passages of the source.
How the values were obtained:
human HSP60/10 = biological target: T1, human HSP60/10 (Homo sapiens, UniProt P10809); assay: HSP60/10-mediated dMDH refolding assay; format: biochemical
T1 construct: octa-Histidine tag (TEV-cleavable) (N, cleaved yes); made in house; host or cells: HSP60 in E. coli Rosetta 2 (DE3); HSP10 in Rosetta 2 (DE3) pLysS
Procedure: Reagent preparation: For these assays, four primary reagent stocks were prepared: 1) GroEUES-dMDH or HSP60/10-dMDH binary complex stock; 2) ATP initiation stock; 3) EDTA quench stock; 4) MDH enzymatic assay stock. Denatured MDH (dMDH) was prepared by 2-fold dilution of MDH (5 mg/ml, soluble pig heart MDH from Roche, product #10127248001) with denaturant buffer (7 M guanidine-HCl, 200 mM Tris, pH 7.4, and 50 mM DTT). MDH was completely denatured by incubating at room temperature for 45 min. The binary complex solutions were prepared by slowly adding the dMDH stock to a stirring stock with GroEL (or HSP60) in folding buffer (50 mM Tris-HCl, pH 7.4, 50 mM KCl, 10 mM MgCl2, and 1 mM DTT), followed by addition of GroES (or HSP10). The binary complex stocks were prepared immediately prior to dispensing into the assay plates and had final protein concentrations of 83.3 nM GroEL (Mr 800 kDa) or HSP60 (Mr 400 kDa), 100 nM GroES or HSP10 (Mr 70 kDa), and 20 nM dMDH in folding buffer. For the ATP initiation stock, ATP solid was diluted into folding buffer to a final concentration of 2.5 mM. Quench solution contained 600 mM EDTA (pH 8.0). The MDH enzymatic assay stock consisted of 20 mM sodium mesoxalate and 2.4 mM NADH in reaction buffer (50 mM Tris-HCl, pH 7.4, 50 mM KCl, and 1 mM DTT).
Assay Protocol: First, 30 μL aliquots of the GroEL/ES-dMDH or HSP60/10-dMDH binary complex stocks were dispensed into clear, 384-well polystyrene plates. […] The chaperonin-mediated refolding cycles were initiated by addition of 20 μL of ATP stock (reagent concentrations during refolding cycle: 50 nM GroEL or HSP60, 60 nM GroES or HSP10, 12 nM dMDH, 1 mM ATP, and compounds of 100 μM to 46 nM, 3-fold dilution series). The refolding reactions were incubated at 37° C. […] Next, the assay was quenched by addition of 10 μL of the EDTA to final concentration of 100 mM. […] A340 nm measurements were recorded at 0.5 minutes (start point) and at successive time points until the amount of NADH consumed reached ˜90% (end point, generally between 20-35 minutes). The differences between the start and end point A340 values were used to calculate the % inhibition of the GroEL/ES or HSP60/10 machinery by the compounds. […] Results presented represent the averages of IC50 values obtained from at least quadriplicate (duplicate of duplicate) replicates.

[1] = tested on: Enterococcus faecium (ATCC 19434); assay: Bacterial proliferation assay, E. faecium; format: cell-based
Description: (§1) Bacterial Strains: Enterococcus faecium—(Orla-Jensen) Schleifer and Kilpper-Balz strain NCTC 7171 (ATCC 19434); Drug sensitive Staphylococcus aureus—Rosenbranch strain Seattle 1945 (ATCC 25923); Methicillin resistant S. aureus (MRSA)—Rosenbach strain HPV107 (ATCC BAA-44); Klebsiella Pneumonia—(Schroeter) Trevisan strain NCTC 9633 (ATCC 13883); Acinetobacter baumannii—Bouvet and Grimont strain 2208 (ATCC 19606); Pseudomonas aeruginosa—(Schroeter) Migula strain NCTC 10332 (ATCC 10145); Enterobacter cloacae—E. cloacae, subsp. cloacae (Jordan) Hormaeche and Edwards strain CDC 442-68 (ATCC 13047).
(§2) Growth Media: All bacteria were grown in Brain Heart Infusion (BHI) broth/agar (Becton, Dickinson and Company). All liquid cultures were grown in BHI media supplemented with 25 mg/L Ca^2+ and 12.5 mg/L Mg^2+ to mimic free physiological concentrations of these cations. A 10 mg/mL Ca^2+ stock solution was prepared by dissolving 3.68 g of CaCl2.2H2O in 100 mL of deionized water, and a 10 mg/mL Mg^2+ stock solution was prepared by dissolving 8.36 g of MgCl2.6H2O in 100 mL deionized water. Both stock solutions were filter-sterilized using 0.2 μm pore size cellulose-acetate filters. 2.5 mL of the sterile 10 mg/mL Ca^2+ stock and 1.25 mL of the sterile 10 mg/mL Mg^2+ stock solutions were added per 1 L of autoclaved BHI medium to obtain 25 mg/L Ca^2+ and 12.5 mg/L Mg^2+ ions, respectively.
(§3) General Assay Protocol: Stock bacterial cultures were streaked onto BHI agar plates and grown overnight at 37° C. Fresh aliquots of broth were inoculated with single bacterial colonies and the cultures were grown overnight at 37° C. with shaking (240 rpm) in cation adjusted BHI media. The following morning, the overnight cultures were sub-cultured (1:5 dilution) into fresh aliquots of cation adjusted BHI media and grown at 37° C. for 1-2 hours with shaking. After 2 h, cultures were diluted into fresh media to achieve final OD600 readings of 0.017. Aliquots of these diluted cultures (30 μL) were added to clear, flat-bottom, 384-well polystyrene plates that were stamped with 0.5 μL of test compounds in 20 μL media. […] Plates were sealed with “Breathe Easy” oxygen permeable membranes (Diversified Biotech) and left to incubate at 37° C. without shaking (stagnant assay). OD600 nm readings were taken at either 6-8 h (S. aureus, MRSA, K. pneumonia, E. cloacae, and P. aeruginosa) or 24 h (E. faecium and A. baumannii). A second set of baseline control plates were prepared analogously, but without any bacteria added, to correct for possible compound absorbance and/or precipitation. Plates were then read at 600 nm using a Molecular Devices SpectraMax Plus384 microplate reader. […] Results presented represent the averages of EC50 values obtained from at quadriplicate (duplicate of duplicate) replicates.

[2] = tested on: Drug sensitive Staphylococcus aureus (ATCC 25923); assay: Bacterial proliferation assay, drug sensitive S. aureus; format: cell-based
Description: as §1, §2, §3

[3] = tested on: Klebsiella Pneumonia (ATCC 13883); assay: Bacterial proliferation assay, K. pneumoniae; format: cell-based
Description: as §1, §2, §3

[4] = tested on: Pseudomonas aeruginosa (ATCC 10145); assay: Bacterial proliferation assay, P. aeruginosa; format: cell-based
Description: as §1, §2, §3

[5] = human HSP60/10-dMDH refolding assay, read-out: HSP60/10-dMDH Refolding IC50
[6] = log(IC50) ± standard deviation, human HSP60/10-dMDH refolding assay, read-out: HSP60/10-dMDH Refolding Assay log(IC50) (converted)
[7] = ATCC19434, 24 h, read-out: Bacterial Proliferation EC50 E. faecium
[8] = ATCC19434, read-out: log(EC50) Bacterial Proliferation Assay C. faecium (converted)
[9] = ATCC25923, read-out: Bacterial Proliferation EC50 S. aureus Sensitive
[10] = ATCC25923, read-out: log(EC50) Bacterial Proliferation Assay S. aureus Sensitive (converted)
[11] = ATCC13883, read-out: Bacterial Proliferation EC50 K. pneumoniae
[12] = ATCC13883, read-out: log(EC50) Bacterial Proliferation Assay K. pneumoniae (converted)
[13] = ATCC10145, read-out: Bacterial Proliferation EC50 P. aeruginosa
[14] = ATCC10145, read-out: log(EC50) Bacterial Proliferation Assay P. aeruginosa (converted)
[15] = ATCC19434, OD600 at 24 h, read-out: Bacterial Proliferation EC50 E. faecium
[16] = ATCC19434, log of EC50 (μM scale), with standard deviation, read-out: log(EC50) Bacterial Proliferation Assay C. faecium (converted)
[17] = ATCC25923, OD600 at 6-8 h, read-out: Bacterial Proliferation EC50 S. aureus Sensitive
[18] = ATCC25923, log of EC50 (μM scale), with standard deviation, read-out: log(EC50) Bacterial Proliferation Assay S. aureus Sensitive (converted)
[19] = ATCC13883, OD600 at 6-8 h, read-out: Bacterial Proliferation EC50 K. pneumoniae
[20] = ATCC13883, log of EC50 (μM scale), with standard deviation, read-out: log(EC50) Bacterial Proliferation Assay K. pneumoniae (converted)
[21] = ATCC10145, OD600 at 6-8 h, read-out: Bacterial Proliferation EC50 P. aeruginosa
[22] = ATCC10145, log of EC50 (μM scale), with standard deviation, read-out: log(EC50) Bacterial Proliferation Assay P. aeruginosa (converted)

T1 sequence (P10809 27-573): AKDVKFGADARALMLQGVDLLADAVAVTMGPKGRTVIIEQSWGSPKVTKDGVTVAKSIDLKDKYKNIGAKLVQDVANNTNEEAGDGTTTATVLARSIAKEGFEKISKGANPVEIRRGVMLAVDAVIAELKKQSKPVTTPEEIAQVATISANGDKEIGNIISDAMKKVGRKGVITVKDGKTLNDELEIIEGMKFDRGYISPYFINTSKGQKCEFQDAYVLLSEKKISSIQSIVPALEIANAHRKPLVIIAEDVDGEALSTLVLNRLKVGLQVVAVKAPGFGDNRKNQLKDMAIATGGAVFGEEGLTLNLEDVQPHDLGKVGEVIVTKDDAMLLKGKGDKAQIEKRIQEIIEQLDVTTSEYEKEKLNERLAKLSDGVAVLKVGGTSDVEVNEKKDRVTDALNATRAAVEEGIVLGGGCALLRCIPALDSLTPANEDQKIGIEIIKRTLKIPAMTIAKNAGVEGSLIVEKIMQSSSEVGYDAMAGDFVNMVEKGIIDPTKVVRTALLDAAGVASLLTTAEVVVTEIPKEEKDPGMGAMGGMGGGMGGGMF

O=C(Nc1ccc(Sc2nc3ccccc3s2)cc1)c1cccc(Br)c1O [Compound 6, N-(4-(Benzo[d]thiazol-2-ylthio)phenyl)-3-bromo-2-hydroxybenzamide]
IC50 (human HSP60/10; [5]): 26 µM
IC50 (human HSP60/10; [6]): 25.7 µM
EC50 [1, 7]: 11 µM
EC50 [1, 8]: 11.2 µM
EC50 [2, 9]: 0.76 µM
EC50 [2, 10]: 0.759 µM
EC50 [3, 11]: > 100 µM
EC50 [3, 12]: > 100 µM
EC50 [4, 13]: > 100 µM
EC50 [4, 14]: > 100 µM

O=C(Nc1ccccc1)c1ccccc1O [Compound 16, 2-Hydroxy-N-phenylbenzamide]
IC50 (human HSP60/10): > 100 µM
HSP60/10-dMDH Refolding Assay log(IC50) (human HSP60/10; log(IC50) ± standard deviation, human HSP60/10-dMDH refolding assay): >2
EC50 [1, 7]: > 100 µM
EC50 [1, 8]: > 100 µM
EC50 [2, 9]: 28 µM
EC50 [2, 10]: 27.5 µM
EC50 [3, 11]: > 100 µM
EC50 [3, 12]: > 100 µM
EC50 [4, 13]: > 100 µM
EC50 [4, 14]: > 100 µM

O=C(Nc1ccccc1)c1cc(Br)ccc1O [Compound 15, 5-Bromo-2-hydroxy-N-phenylbenzamide]
IC50 (human HSP60/10; [5]): > 100 µM
IC50 (human HSP60/10; [6]): > 100 µM
EC50 [1, 15]: > 100 µM
EC50 [1, 16]: > 100 µM
EC50 [2, 17]: 2.8 µM
EC50 [2, 18]: 2.75 µM
EC50 [3, 19]: 78 µM
EC50 [3, 20]: 77.6 µM
EC50 [4, 21]: > 100 µM
EC50 [4, 22]: > 100 µM

COc1ccc(Br)cc1C(=O)Nc1ccc(Sc2nc3ccccc3s2)cc1 [Compound 35, N-(4-(Benzo[d]thiazol-2-ylthio)phenyl)-5-bromo-2-methoxybenzamide]
IC50 (human HSP60/10; [5]): > 100 µM
IC50 (human HSP60/10; [6]): > 100 µM
EC50 [1, 15]: > 100 µM
EC50 [1, 16]: > 100 µM
EC50 [2, 17]: > 100 µM
EC50 [2, 18]: > 100 µM
EC50 [3, 19]: > 100 µM
EC50 [3, 20]: > 100 µM
EC50 [4, 21]: > 100 µM
EC50 [4, 22]: > 100 µM

O=C(Nc1ccc(Sc2nc3ccccc3s2)cc1)c1cccc(Br)c1 [Compound 21, N-(4-(Benzo[d]thiazol-2-ylthio)phenyl)-3-bromobenzamide]
IC50 (human HSP60/10; [5]): > 100 µM
IC50 (human HSP60/10; [6]): > 100 µM
EC50 [1, 15]: > 100 µM
EC50 [1, 16]: > 100 µM
EC50 [2, 17]: > 100 µM
EC50 [2, 18]: > 100 µM
EC50 [3, 19]: > 100 µM
EC50 [3, 20]: > 100 µM
EC50 [4, 21]: > 100 µM
EC50 [4, 22]: > 100 µM
